The results in this text go back to patent publication EP4696688A1, “BENZO-FUSED RING COMPOUND INHIBITOR, AND PREPARATION METHOD THEREFOR AND USE THEREOF” (Shanghai Hansoh Biomedical Co., Ltd., priority 2023, dated 2024).

A value given as a limit tells only on which side of the number the result lay.

The nature of series [1]: Pharmacokinetic determination in rats. It counts as in vivo. As to conditions: rat, male SD rats, plasma, oral administration (PO) 5 mg/kg; for MRT inf: read-out: MRT0-∞. On the procedure: SD rats were used as test animals to study the pharmacokinetic behavior of the compounds of the present invention in rats (plasma) after oral administration.
3 SD rats per group, male.
Formulation of drug for oral administration: 0.5% CMC-Na (1% Tween 80)
5 g of sodium carboxymethyl cellulose (CMC-Na, viscosity: 800-1200 Cps) was weighed and dissolved in 1000 mL of purified water, and 10 g of Tween 80 was added. These materials were uniformly mixed to form a clear solution.
The example compounds were weighed and dissolved in the solution and the mixture was shaken well and ultrasonicated for 15 min to obtain a colorless clear solution with a concentration of 0.5 mg/mL. Formulation of drug for intravenous administration: 5% DMSO + 10% Solutol HS15 + 85% PBS
After overnight fasting, 3 male SD rats per group were administered orally (PO) at a dose of 5 mg/kg with an administration volume of 10 mL/kg. […]
0.2 mL of blood was collected from the jugular vein of the experimental animals before administration and at 0.25 h, 0.5 h, 1.0 h, 2.0 h, 4.0 h, 6.0 h, 8.0 h, and 24.0 h after administration and placed in an EDTA-2K test tube, and the test tube was centrifuged at 8000 rpm for 6 min at 4°C to separate the plasma, which was stored at -80°C; and the animals were fed 4 h after administration.
3 Experimental results: The final determination results were obtained by using LCMS/MS method.

The target in the next series is T1, human CYP11B1 (Homo sapiens, UniProt P15538).
T1 construct: The main elements of an expression plasmid include ORF of human CYP11B1 or human CYP11B2; expressed in transfected cells
T1 sequence (P15538 25-503): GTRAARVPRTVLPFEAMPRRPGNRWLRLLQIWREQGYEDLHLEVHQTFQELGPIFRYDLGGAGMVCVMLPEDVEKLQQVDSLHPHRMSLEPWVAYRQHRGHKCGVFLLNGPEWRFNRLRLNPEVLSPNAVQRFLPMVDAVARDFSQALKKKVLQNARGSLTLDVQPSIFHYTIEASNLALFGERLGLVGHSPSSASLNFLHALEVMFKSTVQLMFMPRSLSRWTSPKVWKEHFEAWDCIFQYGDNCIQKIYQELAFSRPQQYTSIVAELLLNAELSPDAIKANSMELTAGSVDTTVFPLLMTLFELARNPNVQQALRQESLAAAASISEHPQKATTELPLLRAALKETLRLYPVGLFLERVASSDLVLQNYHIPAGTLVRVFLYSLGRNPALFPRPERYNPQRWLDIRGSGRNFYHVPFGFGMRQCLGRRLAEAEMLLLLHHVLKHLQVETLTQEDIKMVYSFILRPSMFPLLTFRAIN
Put plainly: G-402 cell enzyme experiment, CYP11B1 (cortisol product, HTRF), selectivity versus CYP11B2. It counts as cell-based. As to conditions: human selective factor: ratio of CYP11B1 EC50 to CYP11B2 EC50; G-402 cells. An excerpt: (§1) G-402 cell line was used as host cells to express (by transient or stable transfection) an enzyme of the human CYP11 family. Specifically, G-402 cell lines stably expressing human CYP11B1 and human CYP11B2 were established respectively. […] Therefore, the G-402 cell line is very suitable as a host cell for the ectopic expression of an enzyme of the CYP11 family.
(§2) The G-402 cell line, originally derived from renal myoblastoma, can be obtained from ATCC (CRL-1440). The main elements of an expression plasmid include ORF of human CYP11B1 or human CYP11B2, a suitable promoter (CMV promoter), and a suitable resistance marker (neomycin). The expression plasmid was transfected into G-402 cells by standard technology, and a specific antibiotic was then given for screening. The activity of the enzyme expressed by the screened monoclonal cells was assessed by 11-deoxycorticosterone (substrate of CYP11B2) and 11-deoxycortisol (substrate of CYP11B1).
(§3) The G-402 cells expressing CYP11 plasmid, as established in the above solution, were cultured in McCoy's 5a Modified Medium (ATCC Catalog No. 30-2007) containing 10% FCS and 400 µg/ml G418 in an incubator at 37°C and 5% CO2. A cell enzyme experiment was carried out using DMEM/F12 medium containing 2.5% charcoal-treated FBS and an appropriate concentration of a substrate (1 µM 11-deoxycorticosterone or 1 µM 11-deoxycortisol). In order to detect the activity of the enzyme in the cells, the cells were plated in a 96-well plate and incubated for 16 h. The supernatant was then transferred and analyzed for the concentration of the expected product (the product of CYP11B2: aldosterone; the product of CYP11B1: cortisol). The concentrations of these products were determined by an HTRF experiment of CisBio.
(§4) In the cell enzyme experiment, the inhibitory effect of the test compound on the generated product can reflect the inhibitory effect thereof on the enzyme. The dose-dependent inhibition of the enzyme activity by the compound was calculated by plotting the concentration of the test compound (x axis) versus the measured product level (y axis). Then, the original data was fitted to a 4-parameter sigmoidal function (Morgan-Mercer-Flodin, MMF model) by least square method: y = (AB + Cx^D) / (B + x^D) in which A is the maximum y value, B is the EC50 determined by XLFit, C is the minimum y value, and D is the slope value. The maximum value A corresponds to the amount of the product detected without an inhibitor, and C corresponds to the amount of the product detected in the G402 cells expressing an empty plasmid.
(§5) The EC50 value of the compound of the present invention was determined by the above G-402 experiment system. The activity of the CYP11B2 enzyme was determined under the conditions of 1 µM 11-deoxycorticosterone and a variable amount of the inhibitor, and the activity of the CYP11B1 enzyme was determined under the conditions of 1 µM 11-deoxycortisol and a variable amount of the inhibitor.
(In TR-FRET formats the signal depends on donor and acceptor labels being close together.)

A further series has as its target T2, human CYP11B2 (Homo sapiens, UniProt P19099).
T2 construct: The main elements of an expression plasmid include ORF of human CYP11B1 or human CYP11B2; expressed in transfected cells
T2 sequence (P19099 25-503): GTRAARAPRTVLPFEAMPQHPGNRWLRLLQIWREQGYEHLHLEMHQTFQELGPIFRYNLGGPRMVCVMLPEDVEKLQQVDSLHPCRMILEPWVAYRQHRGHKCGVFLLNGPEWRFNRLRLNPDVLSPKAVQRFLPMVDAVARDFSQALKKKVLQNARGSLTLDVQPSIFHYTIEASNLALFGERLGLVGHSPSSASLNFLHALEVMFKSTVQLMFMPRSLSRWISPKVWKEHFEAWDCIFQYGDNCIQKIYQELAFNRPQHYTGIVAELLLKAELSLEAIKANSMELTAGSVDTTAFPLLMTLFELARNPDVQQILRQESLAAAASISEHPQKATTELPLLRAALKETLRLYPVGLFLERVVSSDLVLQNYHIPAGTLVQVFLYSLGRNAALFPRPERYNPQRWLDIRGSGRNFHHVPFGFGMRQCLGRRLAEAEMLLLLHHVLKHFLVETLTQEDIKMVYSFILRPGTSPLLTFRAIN
Put plainly: G-402 cell enzyme experiment, CYP11B2 (aldosterone product, HTRF). The format is cell-based. As to conditions: G-402 cells stably expressing human CYP11B2, 1 µM 11-deoxycorticosterone, 16 h.
Excerpt: as §1, §2, §3, §4, §5

For orientation: AUC(0-inf) means total exposure, with the tail of the curve extrapolated. A high value points to more exposure. For orientation: AUC(0-t) means exposure summed from dosing to a finite time, without extrapolation to infinity. Higher therefore signals more exposure. Usually Cmax stands for the peak of the concentration-time curve. As a reminder, the Tmax is the time from dosing to the highest level. As a reminder, the half-life is how long it takes for the measured level to halve. One may read the EC50 as the concentration giving half of the maximal effect. `COc1ccc2cc(-c3cncc(N4CC5(CN(C(=O)c6cnn(C)c6)C5)C4)c3)ccc2n1` [Example 23, (6-(5-(2-methoxyquinolin-6-yl)pyridin-3-yl)-2,6-diazaspiro[3.3]heptan-2-yl)(1-methyl-1H-pyrazol-4-yl)methanone]: in series [1], the AUC(0-inf) is 33600 ng·h/mL, the exposure AUC(0-t) stood at 33600 ng·h/mL, the Cmax was 5720 ng/mL and the Tmax is 2 h. Further, in series [1], the half-life is 2.2 h and the MRT inf stood at 3.8 h. The hsF at human CYP11B1 was > 22909x. This molecule registered an EC50 on human CYP11B2 of 9 nM.

As for `CCC(=O)N[C@@H]1CCCc2c(-c3ccc4c(cnn4C)c3)cncc21` [Example 60, (R)-N-(4-(1-methyl-1H-indazol-5-yl)-5,6,7,8-tetrahydroisoquinolin-8-yl)propanamide], in series [1], the AUC(0-inf) was found to be 22400 ng·h/mL, the AUC(0-t) was found to be 21800 ng·h/mL, the Cmax is 4900 ng/mL and the Tmax was determined as 2 h. In addition, in series [1], the half-life is 1.3 h and the MRT inf turned out to be 3.1 h. Moreover, the hsF at human CYP11B1 turned out to be 170x. At human CYP11B2, this molecule gave an EC50 of 69 nM.

With `COc1ccc2cc(-c3cncc(N4CC5(CN(C(=O)C6(C#N)CC6)C5)C4)c3)ccc2n1` [Example 81, 1-(6-(5-(2-methoxyquinolin-6-yl)pyridin-3-yl)-2,6-diazaspiro[3.3]heptane-2-carbonyl)cyclopropane-1-carbonitrile], the hsF on human CYP11B1 is recorded as 261x. Moreover, the EC50 at human CYP11B2 was found to be 5 nM.

For `COc1ccc2cc(-c3cncc(N4CC5(CN(C(=O)C6CC6)C5)C4)c3)ccc2n1` [Example 82, cyclopropyl (6-(5-(2-methoxyquinolin-6-yl)pyridin-3-yl)-2,6-diazaspiro[3.3]heptan-2-yl)methanone], the hsF at human CYP11B1 was 842x. This molecule also gave an EC50 at human CYP11B2 of 18 nM.

With `COc1ccc2cc(-c3cncc(N4CC5(CN(C(=O)c6ccc(C)nc6)C5)C4)c3)ccc2n1` [Example 84, (6-(5-(2-methoxyquinolin-6-yl)pyridin-3-yl)-2,6-diazaspiro[3.3]heptan-2-yl)(6-methylpyridin-3-yl)methanone], at human CYP11B1, the hsF is 1652x. Further, at human CYP11B2, a half-maximal response (EC50) required 8 nM.

As to `COc1ccc2cc(-c3cncc(N4CC5(CN(C(C)=O)C5)C4)c3)ccc2n1` [Example 92, 1-(6-(5-(2-methoxyquinolin-6-yl)pyridin-3-yl)-2,6-diazaspiro[3.3]heptan-2-yl)ethan-1-one], the hsF at human CYP11B1 turned out to be 1285x. The same molecule showed an EC50 at human CYP11B2 of 11 nM.

`COc1ccc2cc(-c3cncc(N4CC5(CN(C(C)=O)C5)C4)n3)ccc2n1` [Example 93, 1-(6-(6-(2-methoxyquinolin-6-yl)pyrazin-2-yl)-2,6-diazaspiro[3.3]heptan-2-yl)ethan-1-one]: the hsF on human CYP11B1 amounted to 229x. On human CYP11B2, this molecule gave an EC50 of 48 nM.

Turning to `COc1ccc2cc(-c3cncc(N4CC5(CN(C(=O)C6(F)CC6)C5)C4)c3)ccc2n1` [Example 94, (1-fluorocyclopropyl)(6-(5-(2-methoxyquinolin-6-yl)pyridin-3-yl)-2,6-diazaspiro[3.3]heptan-2-yl)methanone], the hsF at human CYP11B1 amounted to 350x. Further, it took 13 nM to reach a half-maximal effect at human CYP11B2 (EC50).

Turning to `COc1ccc2cc(-c3cncc(N4CC5(CN(C(=O)C6(O)CC6)C5)C4)c3)ccc2n1` [Example 97, (1-hydroxycyclopropyl)(6-(5-(2-methoxyquinolin-6-yl)pyridin-3-yl)-2,6-diazaspiro[3.3]heptan-2-yl)methanone], the hsF at human CYP11B1 is recorded as 971x. The same molecule registered an EC50 at human CYP11B2 of 11 nM.

Consider `Cc1ccc(C(=O)N2CC3(C2)CN(c2cncc(-c4ccc5c(c4)sc(=O)n5C)c2)C3)cn1` [Example 101, 3-methyl-6-(5-(6-(6-methylnicotinoyl)-2,6-diazaspiro[3.3]heptan-2-yl)pyridin-3-yl)benzo[d]thiazol-2(3H)-one], for which, at human CYP11B1, the hsF was > 4651x. This molecule also returned an EC50 at human CYP11B2 of 43 nM.

Turning to `Cn1cc(C(=O)N2CC3(C2)CN(c2cncc(-c4ccc5c(c4)sc(=O)n5C)n2)C3)cn1` [Example 107, 3-methyl-6-(6-(6-(1-methyl-1H-pyrazole-4-carbonyl)-2,6-diazaspiro[3.3]heptan-2-yl)pyrazin-2-yl)benzo[d]thiazol-2(3H)-one], at human CYP11B1, the hsF is > 1923x. This molecule returned an EC50 at human CYP11B2 of 104 nM.

In the case of `COc1ccc2cc(-c3cncc(N4CC5(CC(N6CCc7cc(C)ncc7C6=O)C5)C4)c3)ccc2n1` [Example 108, 2-(2-(5-(2-Methoxyquinolin-6-yl)pyridin-3-yl)-2-azaspiro[3.3]heptan-6-yl)-6-methyl-3,4-dihydro-2,7-diazanaphthalen-1(2H)-one], the hsF on human CYP11B1 is > 2817x. In addition, the concentration giving a half-maximal response (EC50) at human CYP11B2 worked out at 71 nM.

Take `COc1ccc2cc(-c3cncc(N4CCC(NC(=O)c5cnn(C)c5)CC4)n3)ccc2n1` [Example 109, N-(1-(6-(2-methoxyquinolin-6-yl)pyrazin-2-yl)piperidin-4-yl)-1-methyl-1H-pyrazole-4-carboxamide]: the hsF on human CYP11B1 was 159x. At human CYP11B2, this molecule showed an EC50 of 6 nM.
